Measurements published in ChEMBL document CHEMBL4507280 (2021).

Experiments:
[1] = molecular target: Serine/threonine-protein kinase D2 (Homo sapiens) (UniProt Q9BZL6); conditions: Compound concentration 1000.0 nM
[2] = molecular target: Cyclin-dependent kinase 16 (Homo sapiens) (UniProt Q00536); conditions: Compound concentration 1000.0 nM
[3] = molecular target: 5-hydroxytryptamine receptor 1E (Homo sapiens) (UniProt P28566); conditions: Compound concentration 10.0 uM
[4] = molecular target: Tyrosine-protein kinase JAK1 (Homo sapiens) (UniProt P23458); conditions: Compound concentration 1000.0 nM
[5] = molecular target: Serine/threonine-protein kinase 24 (Homo sapiens) (UniProt Q9Y6E0); conditions: Compound concentration 1000.0 nM
[6] = molecular target: Serine/threonine-protein kinase MRCK alpha (Homo sapiens) (UniProt Q5VT25); conditions: Compound concentration 1000.0 nM
[7] = molecular target: Tyrosine-protein kinase CSK (Homo sapiens) (UniProt P41240); conditions: Compound concentration 1000.0 nM
Tyrosine-protein kinase CSK (Homo sapiens), sequence (P41240 2-450 limits assumed): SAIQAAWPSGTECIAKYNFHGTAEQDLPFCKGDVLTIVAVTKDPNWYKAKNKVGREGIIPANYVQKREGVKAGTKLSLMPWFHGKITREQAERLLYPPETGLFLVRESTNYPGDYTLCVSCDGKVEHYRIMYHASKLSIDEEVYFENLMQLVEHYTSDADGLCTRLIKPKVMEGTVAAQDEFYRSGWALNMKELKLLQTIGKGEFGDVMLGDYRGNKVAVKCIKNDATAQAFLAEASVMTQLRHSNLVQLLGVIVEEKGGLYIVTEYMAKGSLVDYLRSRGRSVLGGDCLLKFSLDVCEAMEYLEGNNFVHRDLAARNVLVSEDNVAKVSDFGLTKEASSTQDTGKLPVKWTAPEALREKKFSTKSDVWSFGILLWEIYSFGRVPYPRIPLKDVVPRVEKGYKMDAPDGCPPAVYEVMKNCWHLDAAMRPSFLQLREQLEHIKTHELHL

[8] = molecular target: 5'-AMP-activated protein kinase catalytic subunit alpha-1 (Homo sapiens) (UniProt Q13131); conditions: Compound concentration 1000.0 nM
[9] = test system: Tyrosine-protein kinase ABL1 (Homo sapiens), P00519 [Q252H]; conditions: Compound concentration 1000.0 nM
[10] = molecular target: Serine/threonine-protein kinase 36 (Homo sapiens) (UniProt Q9NRP7); conditions: Compound concentration 1000.0 nM
[11] = molecular target: 1-phosphatidylinositol 3-phosphate 5-kinase (Homo sapiens) (UniProt Q9Y2I7); conditions: Compound concentration 1000.0 nM
[12] = molecular target: Cyclin-dependent kinase-like 1 (Homo sapiens) (UniProt Q00532); conditions: Compound concentration 1000.0 nM
[13] = molecular target: Serine/threonine-protein kinase SIK2 (Homo sapiens) (UniProt Q9H0K1); conditions: Compound concentration 1000.0 nM
Serine/threonine-protein kinase SIK2 (Homo sapiens), sequence (Q9H0K1 whole entry, looked up): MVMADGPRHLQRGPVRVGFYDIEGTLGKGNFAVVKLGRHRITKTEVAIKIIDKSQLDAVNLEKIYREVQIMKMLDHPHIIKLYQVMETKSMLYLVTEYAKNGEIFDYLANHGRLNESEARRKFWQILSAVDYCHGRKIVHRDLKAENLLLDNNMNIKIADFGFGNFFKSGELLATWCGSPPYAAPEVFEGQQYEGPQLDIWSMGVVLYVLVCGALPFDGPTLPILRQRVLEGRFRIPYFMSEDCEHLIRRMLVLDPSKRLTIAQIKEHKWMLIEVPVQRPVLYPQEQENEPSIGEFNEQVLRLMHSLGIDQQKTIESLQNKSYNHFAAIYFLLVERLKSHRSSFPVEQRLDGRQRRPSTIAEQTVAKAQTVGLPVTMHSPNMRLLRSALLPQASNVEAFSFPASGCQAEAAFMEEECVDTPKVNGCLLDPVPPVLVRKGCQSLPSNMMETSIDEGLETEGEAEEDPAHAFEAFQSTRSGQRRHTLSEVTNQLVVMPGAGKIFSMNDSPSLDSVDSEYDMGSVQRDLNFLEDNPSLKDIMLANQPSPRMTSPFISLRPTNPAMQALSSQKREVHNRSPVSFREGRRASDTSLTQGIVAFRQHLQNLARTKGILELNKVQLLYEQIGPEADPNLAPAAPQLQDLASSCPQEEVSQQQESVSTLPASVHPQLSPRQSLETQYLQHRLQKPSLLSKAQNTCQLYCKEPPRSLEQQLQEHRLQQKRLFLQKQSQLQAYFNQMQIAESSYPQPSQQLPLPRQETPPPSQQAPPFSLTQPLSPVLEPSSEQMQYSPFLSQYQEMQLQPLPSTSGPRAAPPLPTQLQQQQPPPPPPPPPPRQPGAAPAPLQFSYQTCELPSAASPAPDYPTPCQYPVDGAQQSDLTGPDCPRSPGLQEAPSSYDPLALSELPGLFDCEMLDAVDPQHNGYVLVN

[14] = molecular target: Serine/threonine-protein kinase VRK2 (Homo sapiens) (UniProt Q86Y07); conditions: Compound concentration 1000.0 nM
[15] = molecular target: Tyrosine-protein kinase Blk (Homo sapiens) (UniProt P51451); conditions: Compound concentration 1000.0 nM
Tyrosine-protein kinase Blk (Homo sapiens), sequence (P51451 2-505 limits assumed): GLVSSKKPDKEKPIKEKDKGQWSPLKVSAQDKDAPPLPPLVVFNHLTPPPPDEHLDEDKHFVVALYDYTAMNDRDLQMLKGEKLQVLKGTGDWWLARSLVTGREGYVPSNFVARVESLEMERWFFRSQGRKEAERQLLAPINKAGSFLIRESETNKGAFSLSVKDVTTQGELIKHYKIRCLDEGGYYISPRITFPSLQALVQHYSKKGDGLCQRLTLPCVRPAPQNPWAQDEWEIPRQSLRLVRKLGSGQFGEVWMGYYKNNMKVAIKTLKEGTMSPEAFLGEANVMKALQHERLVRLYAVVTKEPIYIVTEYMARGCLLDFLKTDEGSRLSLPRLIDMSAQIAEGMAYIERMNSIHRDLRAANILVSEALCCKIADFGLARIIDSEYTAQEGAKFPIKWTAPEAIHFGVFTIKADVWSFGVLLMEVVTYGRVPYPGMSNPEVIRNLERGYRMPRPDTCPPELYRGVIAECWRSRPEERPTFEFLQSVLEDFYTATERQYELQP

[16] = molecular target: Atypical kinase COQ8A, mitochondrial (Homo sapiens) (UniProt Q8NI60); conditions: Compound concentration 1000.0 nM
Atypical kinase COQ8A, mitochondrial (Homo sapiens), sequence (Q8NI60 163-647 limits assumed): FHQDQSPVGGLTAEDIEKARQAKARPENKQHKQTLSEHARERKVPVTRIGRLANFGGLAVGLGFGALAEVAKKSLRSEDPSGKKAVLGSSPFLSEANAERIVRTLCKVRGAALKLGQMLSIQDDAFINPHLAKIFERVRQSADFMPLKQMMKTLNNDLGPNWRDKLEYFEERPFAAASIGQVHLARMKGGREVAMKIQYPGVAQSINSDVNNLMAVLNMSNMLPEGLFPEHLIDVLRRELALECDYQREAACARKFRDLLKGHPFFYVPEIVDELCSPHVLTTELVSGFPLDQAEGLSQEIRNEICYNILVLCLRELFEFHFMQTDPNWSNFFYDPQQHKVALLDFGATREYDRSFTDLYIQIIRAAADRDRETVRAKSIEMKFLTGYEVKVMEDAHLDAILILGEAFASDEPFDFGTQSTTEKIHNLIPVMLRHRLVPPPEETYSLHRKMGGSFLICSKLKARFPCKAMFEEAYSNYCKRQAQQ

[17] = molecular target: Serine/threonine-protein kinase Nek10 (Homo sapiens) (UniProt Q6ZWH5); conditions: Compound concentration 1000.0 nM
[18] = molecular target: Cyclin-dependent kinase 4 (Homo sapiens) (UniProt P11802); conditions: Compound concentration 1000.0 nM
[19] = molecular target: Muscarinic acetylcholine receptor M5 (Homo sapiens) (UniProt P08912); conditions: Compound concentration 10.0 uM
[20] = molecular target: SRSF protein kinase 1 (Homo sapiens) (UniProt Q96SB4); conditions: Compound concentration 1000.0 nM
[21] = molecular target: Ephrin type-B receptor 6 (Homo sapiens) (UniProt O15197); conditions: Compound concentration 1000.0 nM
[22] = molecular target: Death-associated protein kinase 3 (Homo sapiens) (UniProt O43293); conditions: Compound concentration 1000.0 nM
[23] = molecular target: Serine/threonine-protein kinase D1 (Homo sapiens) (UniProt Q15139); conditions: Compound concentration 1000.0 nM
[24] = molecular target: Rhodopsin kinase GRK7 (Homo sapiens) (UniProt Q8WTQ7); conditions: Compound concentration 1000.0 nM
[25] = molecular target: Maternal embryonic leucine zipper kinase (Homo sapiens) (UniProt Q14680); conditions: Compound concentration 1000.0 nM
[26] = molecular target: Tyrosine-protein kinase JAK3 (Homo sapiens) (UniProt P52333); conditions: Compound concentration 1000.0 nM
[27] = test system: Tyrosine-protein kinase ABL1 (Homo sapiens), P00519 [F317L]; conditions: Compound concentration 1000.0 nM
[28] = molecular target: Mitogen-activated protein kinase 6 (Homo sapiens) (UniProt Q16659); conditions: Compound concentration 1000.0 nM
[29] = molecular target: Serine/threonine-protein kinase PAK 6 (Homo sapiens) (UniProt Q9NQU5); conditions: Compound concentration 1000.0 nM
Serine/threonine-protein kinase PAK 6 (Homo sapiens), sequence (Q9NQU5 whole entry, looked up): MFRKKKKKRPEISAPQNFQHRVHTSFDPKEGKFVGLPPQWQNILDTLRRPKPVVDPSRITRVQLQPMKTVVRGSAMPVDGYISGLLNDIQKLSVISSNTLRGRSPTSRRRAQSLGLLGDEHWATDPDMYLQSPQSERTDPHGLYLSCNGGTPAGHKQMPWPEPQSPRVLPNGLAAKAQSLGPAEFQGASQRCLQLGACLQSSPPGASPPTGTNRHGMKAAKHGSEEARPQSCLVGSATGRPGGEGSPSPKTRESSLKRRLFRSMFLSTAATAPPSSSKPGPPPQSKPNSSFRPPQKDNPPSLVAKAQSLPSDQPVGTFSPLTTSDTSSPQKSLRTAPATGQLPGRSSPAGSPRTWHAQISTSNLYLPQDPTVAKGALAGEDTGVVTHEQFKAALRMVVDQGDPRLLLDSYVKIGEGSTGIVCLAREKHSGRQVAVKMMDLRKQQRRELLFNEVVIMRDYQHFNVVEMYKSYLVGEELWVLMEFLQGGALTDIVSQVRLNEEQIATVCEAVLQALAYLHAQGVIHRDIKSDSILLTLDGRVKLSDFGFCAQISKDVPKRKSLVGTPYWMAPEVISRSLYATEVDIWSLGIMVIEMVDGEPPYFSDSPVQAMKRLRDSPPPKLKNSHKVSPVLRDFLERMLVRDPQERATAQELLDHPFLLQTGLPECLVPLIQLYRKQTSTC

[30] = molecular target: Mitogen-activated protein kinase kinase kinase kinase 1 (Homo sapiens) (UniProt Q92918); conditions: Compound concentration 1000.0 nM
[31] = molecular target: Casein kinase I isoform epsilon (Homo sapiens) (UniProt P49674); conditions: Compound concentration 1000.0 nM
Casein kinase I isoform epsilon (Homo sapiens), sequence (P49674 whole entry, looked up, canonical isoform): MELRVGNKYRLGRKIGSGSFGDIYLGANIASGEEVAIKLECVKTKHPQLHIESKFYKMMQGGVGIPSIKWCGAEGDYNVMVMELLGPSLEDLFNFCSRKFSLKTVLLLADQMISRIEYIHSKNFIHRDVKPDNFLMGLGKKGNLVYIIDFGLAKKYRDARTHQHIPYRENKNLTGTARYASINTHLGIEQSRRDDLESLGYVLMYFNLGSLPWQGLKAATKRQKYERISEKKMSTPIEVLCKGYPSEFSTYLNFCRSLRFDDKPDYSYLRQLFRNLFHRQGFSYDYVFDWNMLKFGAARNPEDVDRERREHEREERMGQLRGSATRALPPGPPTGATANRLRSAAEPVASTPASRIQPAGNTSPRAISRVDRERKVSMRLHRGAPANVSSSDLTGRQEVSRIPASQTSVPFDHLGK

[32] = molecular target: Ribosomal protein S6 kinase alpha-1 (Homo sapiens) (UniProt Q15418); conditions: Compound concentration 1000.0 nM
Ribosomal protein S6 kinase alpha-1 (Homo sapiens), sequence (Q15418 whole entry): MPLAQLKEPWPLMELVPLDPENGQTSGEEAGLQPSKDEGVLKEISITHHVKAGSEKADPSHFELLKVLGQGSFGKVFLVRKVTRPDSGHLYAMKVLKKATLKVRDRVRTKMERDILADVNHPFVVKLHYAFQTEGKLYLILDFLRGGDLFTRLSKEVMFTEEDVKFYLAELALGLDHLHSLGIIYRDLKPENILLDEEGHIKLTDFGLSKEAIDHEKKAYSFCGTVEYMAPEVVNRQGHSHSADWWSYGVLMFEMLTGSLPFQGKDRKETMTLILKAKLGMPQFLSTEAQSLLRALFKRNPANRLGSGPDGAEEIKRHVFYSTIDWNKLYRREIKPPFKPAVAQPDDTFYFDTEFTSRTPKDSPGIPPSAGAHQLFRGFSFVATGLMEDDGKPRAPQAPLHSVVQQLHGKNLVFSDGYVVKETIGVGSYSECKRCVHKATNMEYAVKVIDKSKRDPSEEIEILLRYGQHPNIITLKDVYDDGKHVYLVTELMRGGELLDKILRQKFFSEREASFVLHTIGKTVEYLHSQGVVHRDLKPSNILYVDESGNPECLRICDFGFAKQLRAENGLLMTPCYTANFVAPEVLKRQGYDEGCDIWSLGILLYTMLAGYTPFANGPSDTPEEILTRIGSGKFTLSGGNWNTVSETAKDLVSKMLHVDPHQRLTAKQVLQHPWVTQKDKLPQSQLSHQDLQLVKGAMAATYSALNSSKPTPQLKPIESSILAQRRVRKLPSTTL

[33] = molecular target: Proto-oncogene tyrosine-protein kinase ROS (Homo sapiens) (UniProt P08922); conditions: Compound concentration 1000.0 nM
[34] = molecular target: Ribosomal protein S6 kinase alpha-6 (Homo sapiens) (UniProt Q9UK32); conditions: Compound concentration 1000.0 nM
[35] = molecular target: Phosphatidylinositol 4,5-bisphosphate 3-kinase catalytic subunit gamma isoform (Homo sapiens) (UniProt P48736); conditions: Compound concentration 1000.0 nM
[36] = molecular target: Serine/threonine-protein kinase 32A (Homo sapiens) (UniProt Q8WU08); conditions: Compound concentration 1000.0 nM
[37] = test system: Serine/threonine-protein kinase B-raf (Homo sapiens), P15056 [V600E]; conditions: Compound concentration 1000.0 nM
[38] = molecular target: Serine/threonine-protein kinase NLK (Homo sapiens) (UniProt Q9UBE8); conditions: Compound concentration 1000.0 nM
[39] = molecular target: Ribosomal protein S6 kinase beta-1 (Homo sapiens) (UniProt P23443); conditions: Compound concentration 1000.0 nM
[40] = molecular target: Phosphatidylinositol 5-phosphate 4-kinase type-2 beta (Homo sapiens) (UniProt P78356); conditions: Compound concentration 1000.0 nM
[41] = molecular target: Cyclin-dependent kinase 11A (Homo sapiens) (UniProt Q9UQ88); conditions: Compound concentration 1000.0 nM
Cyclin-dependent kinase 11A (Homo sapiens), sequence (Q9UQ88 whole entry): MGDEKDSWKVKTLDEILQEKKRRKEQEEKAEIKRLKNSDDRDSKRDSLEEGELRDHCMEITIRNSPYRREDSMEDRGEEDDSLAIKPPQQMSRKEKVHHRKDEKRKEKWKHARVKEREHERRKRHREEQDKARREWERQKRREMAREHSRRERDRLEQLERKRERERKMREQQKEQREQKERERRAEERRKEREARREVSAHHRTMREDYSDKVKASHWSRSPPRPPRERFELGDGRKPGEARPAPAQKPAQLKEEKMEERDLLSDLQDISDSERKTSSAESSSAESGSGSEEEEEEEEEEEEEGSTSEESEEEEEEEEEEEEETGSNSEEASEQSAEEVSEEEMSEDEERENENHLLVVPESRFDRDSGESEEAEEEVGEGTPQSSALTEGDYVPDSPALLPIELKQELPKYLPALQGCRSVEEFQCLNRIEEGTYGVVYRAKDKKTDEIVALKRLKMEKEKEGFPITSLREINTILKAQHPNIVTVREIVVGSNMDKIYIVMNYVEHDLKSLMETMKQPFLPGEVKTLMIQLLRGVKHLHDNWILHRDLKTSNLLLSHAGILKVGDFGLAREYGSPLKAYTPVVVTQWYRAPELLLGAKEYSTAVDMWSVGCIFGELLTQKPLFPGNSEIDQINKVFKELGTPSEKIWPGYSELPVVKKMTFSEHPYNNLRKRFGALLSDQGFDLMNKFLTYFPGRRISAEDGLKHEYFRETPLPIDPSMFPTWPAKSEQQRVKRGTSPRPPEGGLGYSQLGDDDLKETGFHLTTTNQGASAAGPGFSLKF

[42] = molecular target: Serine/threonine-protein kinase PLK1 (Homo sapiens) (UniProt P53350); conditions: Compound concentration 1000.0 nM
[43] = molecular target: Phosphatidylinositol 5-phosphate 4-kinase type-2 gamma (Homo sapiens) (UniProt Q8TBX8); conditions: Compound concentration 1000.0 nM
[44] = molecular target: Ribosomal protein S6 kinase alpha-2 (Homo sapiens) (UniProt Q15349); conditions: Compound concentration 1000.0 nM
[45] = test system: Tyrosine-protein kinase ABL1 (Homo sapiens), P00519 [T315I]; conditions: Compound concentration 1000.0 nM

Compound: CCC(=O)N[C@@H]1CC[C@H](C(=O)N(C)c2ccc(-c3nc4ccccc4o3)cc2)C1 [BI 99990]
- residual activity [1]: 100%
- residual activity [2]: 100%
- inhibition [3]: -5.68%
- residual activity [4]: 88%
- residual activity [5]: 100%
- residual activity [6]: 100%
- residual activity [7]: 100%
- residual activity [8]: 91%
- residual activity [9]: 77%
- residual activity [10]: 82%
- residual activity [11]: 93%
- residual activity [12]: 90%
- residual activity [13]: 100%
- residual activity [14]: 100%
- residual activity [15]: 100%
- residual activity [16]: 99%
- residual activity [17]: 100%
- residual activity [18]: 100%
- inhibition [19]: 15.4%
- residual activity [20]: 100%
- residual activity [21]: 100%
- residual activity [22]: 100%
- residual activity [23]: 98%
- residual activity [24]: 93%
- residual activity [25]: 100%
- residual activity [26]: 98%
- residual activity [27]: 86%
- residual activity [28]: 100%
- residual activity [29]: 100%
- residual activity [30]: 100%
- residual activity [31]: 100%
- residual activity [32]: 100%
- residual activity [33]: 100%
- residual activity [34]: 100%
- residual activity [35]: 75%
- residual activity [36]: 100%
- residual activity [37]: 100%
- residual activity [38]: 100%
- residual activity [39]: 93%
- residual activity [40]: 45%
- residual activity [41]: 100%
- residual activity [42]: 95%
- residual activity [43]: 100%
- residual activity [44]: 100%
- residual activity [45]: 79%

Compound: CCC(=O)N[C@H]1CC[C@@H](C(=O)N(C)c2ccc(-c3nc4ccccc4o3)cc2)C1 [BI 99179]
- residual activity [1]: 100%
- residual activity [2]: 88%
- inhibition [3]: -3.14%
- residual activity [4]: 77%
- residual activity [5]: 95%
- residual activity [6]: 87%
- residual activity [7]: 100%
- residual activity [8]: 99%
- residual activity [9]: 72%
- residual activity [10]: 100%
- residual activity [11]: 94%
- residual activity [12]: 95%
- residual activity [13]: 78%
- residual activity [14]: 90%
- residual activity [15]: 97%
- residual activity [16]: 100%
- residual activity [17]: 80%
- residual activity [18]: 88%
- inhibition [19]: -0.421%
- residual activity [20]: 100%
- residual activity [21]: 100%
- residual activity [22]: 95%
- residual activity [23]: 100%
- residual activity [24]: 82%
- residual activity [25]: 94%
- residual activity [26]: 100%
- residual activity [27]: 72%
- residual activity [28]: 100%
- residual activity [29]: 100%
- residual activity [30]: 100%
- residual activity [31]: 93%
- residual activity [32]: 99%
- residual activity [33]: 93%
- residual activity [34]: 92%
- residual activity [35]: 99%
- residual activity [36]: 98%
- residual activity [37]: 96%
- residual activity [38]: 87%
- residual activity [39]: 99%
- residual activity [40]: 54%
- residual activity [41]: 97%
- residual activity [42]: 97%
- residual activity [43]: 100%
- residual activity [44]: 100%
- residual activity [45]: 86%
